Consider seven compounds from PubChem BioAssay AID2060498 (Molecular Pharmacology Branch, DTP, NCI, 2025).

The test system of this test is 171881-019-R-J1-PDC tumor spheroids, viability. Nature of the test: Anticancer human tumor 171881-019-R-J1-PDC patient-derived invasive breast carcinoma cell line growth inhibition [GQUAD]. Conditions: spheroids with HUVEC and MSC; for viability, T/C: stronger effect = lower value. The text has this:
DNA G-quadruplex Stabilizer Agents in Combinations in Complex Spheroids
A high-throughput screen of multi-cell type tumor spheroids was designed to identify active combinations of DNA G-quadruplex stabilizer agents and targeted small molecules. Complex spheroids include a stromal component modeled by human endothelial cells (HUVEC) and fibroblasts modeled by human mesenchymal stem cells (MSCs). The concentration ranges selected for each drug and investigational agent were based upon clinically achievable concentrations if the clinical Cmax of the agent was known.
Compounds. The drugs and investigational agents: pidnarulex (CX-5461; NSC782164), APTO-253 (NSC789042), BRACO-19 (NSC847499), peposertib (NSC802822), ceralasertib (NSC780249), elimusertib (NSC800525), camonsertib (NSC841442), AZD-1390 (NSC803789), olaparib (NSC753686), talazoparib (NSC767125), ART-558 (NSC835418), sotorasib (NSC818433), MRTX-1133 (NSC836407), SN-38 (NSC673596), topotecan (NSC609699), etoposide (NSC141540), doxorubicin (NSC123127), gemcitabine (NSC613327), 5-fluorouracil (NSC19893), paclitaxel (NSC125973), vemurafenib (NSC761431), panobinostat (NSC761190), R-306465 (JNJ-16241199; NSC773264), adavosertib (NSC754352), TP-3654 (NSC805149), carboplatin (NSC241240), KSQ-4279 (NSC840948), and staurosporine (NSC755774) were obtained from the National Cancer Institute (NCI) Developmental Therapeutics Program Chemical Repository (34). The FDA-approved anticancer drug set is available from the NCI Developmental Therapeutics Program. […] The stock solutions were prepared in dimethyl sulfoxide (DMSO, Sigma-Aldrich, St. Louis, MO, cat. D2650) at 800-fold the tested concentration and stored at -70 degrees C prior to their use. All drugs and investigational agents were tested over a range starting from a high concentration at or near the clinical Cmax and decreasing in half-log increments. If the clinical Cmax for an agent had not been determined, the highest concentration tested was 10 microM.
2.3 Cell Culture. All cells were maintained in an incubator at 37 degrees C and 5% CO2 with 95% humidity. The PDC lines were cultured according to standard operating procedures established by the NCI PDMR. All PDCs were thawed and cultured in Matrigel-coated flasks prepared with a working solution of 1X Ham's F-12 nutrient mix, without supplementation (Invitrogen, cat. 11765054), 100 U/mL penicillin-streptomycin (Invitrogen, cat. 15140122), and 2.5% Matrigel (Corning Inc., cat. 354248) for the first three passages. The 857933-349-R-J2-PDC line was cultured in 6C/Colon 1B media, which includes advanced DMEM/F-12 (Thermo Fisher Scientific, cat. 12634028), 10 mM HEPES (Thermo Fisher Scientific, cat. 15630080), 1X GlutaMAX supplement (Thermo Fisher Scientific, cat. 35050061), 0.1 mg/mL primocin (InvivoGen, cat. ant-pm-2), 10% defined fetal bovine serum, heat inactivated (HyClone Laboratories Inc., cat. SH30070.03HI), 50% L-WRN conditioned media (ATCC, cat. CRL-3276), 1.25 mM N-Acetyl-L-cysteine (Sigma-Aldrich, cat. A9165), 10 mM nicotinamide (Sigma-Aldrich, cat. N0636), 1X B-27 supplement (Thermo Fisher Scientific, cat. 17504044), 1X N-2 supplement (Thermo Fisher Scientific, cat. 17502048), 10 microM Y-27632 dihydrochloride (Tocris Bioscience, cat. 1254), and 50 ng/mL human EGF recombinant protein (Thermo Fisher Scientific, cat. PHG0311). The 485176-168-R4-J1-PDC line was cultured in Panc media, which includes all 6C/Colon 1B media components plus 100 ng/mL human FGF-10 (Thermo Fisher Scientific, cat. 100-26), 500 nM SB-431542 (Selleckchem, cat. S1067), and gastrin (Tocris, cat. 3006).
[…]

SMILES strings stand for the structures. “And” between values parts separate entries of the source, which are not always exact repeats. Identical values can stand only once. A value given as a limit tells only on which side of the number the result lay.
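Also: spheroids exposed to compounds for 7 days.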
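For viability, T/C in this document: 100% = DMSO vehicle control viability.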

Turning to `C#Cc1c(F)ccc2cc(O)cc(-c3ncc4c(N5CC6CCC(C5)N6)nc(OCC56CCCN5CC(F)C6)nc4c3F)c12` (centres undefined), the viability, T/C reads like this: (compound 0.0316 µM) 91.1% and 86.6% and 83.5%; (compound 0.1 µM) 72.5% and 68.7% and 74.1%; (compound 0.316 µM) 55.5% and 61.2% and 55.2%; (compound 1 µM) 41.4% and 38% and 36.8%; (compound 3.16 µM) 29.1% and 29.3% and 26.5%; (compound 10 µM) 24.5% and 6.82% and 10.6%. Moreover, the IC50 (curve of compound) was 478 nM and 552 nM and 475 nM.

Regarding `C=CCn1c(=O)c2cnc(Nc3ccc(N4CCN(C)CC4)cc3)nc2n1-c1cccc(C(C)(C)O)n1`, the viability, T/C runs as follows: (compound 0.0316 µM) 101% and 105% (2×); (compound 0.1 µM) 80.9% and 102% and 89.4%; (compound 0.316 µM) 76.6% and 92% and 76.5%; (compound 1 µM) 35.9% (2×) and 39.2%; (compound 3.16 µM) 18.3% and 21.7% and 21.2%; (compound 10 µM) 23.2% and 23.1% and 21.7%. In addition, for the setting “curve of compound”, the IC50 is 660 nM and 789 nM and 669 nM.

Consider `CC(C)(O)C1CCC(Nc2ccc3ncc(-c4cccc(C(F)(F)F)c4)n3n2)CC1` (centres undefined), for which the viability, T/C was 94.5% and 97.7% and 83.7% (compound 0.0316 µM); 103% and 88.9% and 87.9% (compound 0.1 µM); 90% and 92.4% and 78.3% (compound 0.316 µM); 74.2% and 75.5% and 74.3% (compound 1 µM); 25.5% and 27.5% and 22.3% (compound 3.16 µM); 33.8% and 31.2% and 26.3% (compound 10 µM). Also, where the note is “curve of compound”, the IC50 is 1870 nM and 1890 nM and 1750 nM.

On to `CCCS(=O)(=O)Nc1ccc(F)c(C(=O)c2c[nH]c3ncc(-c4ccc(Cl)cc4)cc23)c1F`, for which the viability, T/C is 93.6% and 96.9% and 102% (compound 0.0316 µM); 104% and 92.1% and 101% (compound 0.1 µM); 105% and 114% and 98.3% (compound 0.316 µM); 113% and 97.5% and 123% (compound 1 µM); 96.5% and 102% and 108% (compound 3.16 µM); 51% and 50.6% and 74.3% (compound 10 µM). For the setting “curve of compound”, the IC50 is over 10000 nM.

Turning to `COc1ncnc(C2CC2)c1-c1ncc2cnn(Cc3ccc(-c4nc(C(F)(F)F)cn4C(C)C)cc3)c2n1`, the viability, T/C reads like this: (compound 0.0316 µM) 94% and 84.8% and 93.3%; (compound 0.1 µM) 89.3% and 100% and 93.7%; (compound 0.316 µM) 85.2% and 92.9% and 94%; (compound 1 µM) 100% and 95.7% and 106%; (compound 3.16 µM) 91.3% and 98.7% and 97.9%; (compound 10 µM) 76.1% and 90.1% and 79.6%. Under “curve of compound”, the IC50 was over 10000 nM.

With `O=C(NO)c1cnc(N2CCN(S(=O)(=O)c3ccc4ccccc4c3)CC2)nc1`, the viability, T/C reads like this: (compound 0.0316 µM) 77.1% and 89.5% and 81.1%; (compound 0.1 µM) 74% and 76.3% and 64.2%; (compound 0.316 µM) 44.3% and 39.6% and 41.4%; (compound 1 µM) 0.86% and 0.61% and 2.4%; (compound 3.16 µM) 0.14% and 0.11% and 0.19%; (compound 10 µM) 0.33% and 0.21% and 0.18%. Moreover, the IC50 (curve of compound) is 255 nM and 224 nM and 201 nM.

Turning to `Cn1ncnc1[C@H]1c2n[nH]c(=O)c3cc(F)cc(c23)N[C@@H]1c1ccc(F)cc1` + CN(C)c1ccc(Nc2c3ccc(NC(=O)CCN4CCCC4)cc3nc3cc(NC(=O)CCN4CCCC4)ccc23)cc1, the IC50 was over 316 nM (curve of first compound, second compound 0.0316 µM); over 316 nM (curve of first compound, second compound 0.1 µM); over 316 nM (curve of first compound, second compound 0.316 µM); under 0.999 nM (curve of first compound, second compound 1 µM); under 0.999 nM (curve of first compound, second compound 3.16 µM); under 0.999 nM (curve of first compound, second compound 10 µM). Also, the viability, T/C is, setting by setting: (second compound 0.0316 µM, first compound 0.000999 µM) 95.8%; (second compound 0.0316 µM, first compound 0.00316 µM) 98%; (second compound 0.0316 µM, first compound 0.00999 µM) 91.5%; (second compound 0.0316 µM, first compound 0.0316 µM) 102%; (second compound 0.0316 µM, first compound 0.0999 µM) 88.9%; (second compound 0.0316 µM, first compound 0.316 µM) 96.1%. The viability, T/C runs as follows: (second compound 0.1 µM, first compound 0.000999 µM) 105%; (second compound 0.1 µM, first compound 0.00316 µM) 97.8%; (second compound 0.1 µM, first compound 0.00999 µM) 98.8%; (second compound 0.1 µM, first compound 0.0316 µM) 100%; (second compound 0.1 µM, first compound 0.0999 µM) 72.9%; (second compound 0.1 µM, first compound 0.316 µM) 87.6%. Besides, the viability, T/C (second compound 0.316 µM, first compound 0.000999 µM) was 87.7%; the viability, T/C (second compound 0.316 µM, first compound 0.00316 µM) is 84.6%; the viability, T/C (second compound 0.316 µM, first compound 0.00999 µM) was 89%; the viability, T/C (second compound 0.316 µM, first compound 0.0316 µM) was 68.2%; the viability, T/C (second compound 0.316 µM, first compound 0.0999 µM) is 79.3%; the viability, T/C (second compound 0.316 µM, first compound 0.316 µM) is 77%. Besides, the viability, T/C is, setting by setting: (second compound 1 µM, first compound 0.000999 µM) 35.8%; (second compound 1 µM, first compound 0.00316 µM) 24.4%; (second compound 1 µM, first compound 0.00999 µM) 34.5%; (second compound 1 µM, first compound 0.0316 µM) 16.9%; (second compound 1 µM, first compound 0.0999 µM) 22%; (second compound 1 µM, first compound 0.316 µM) 19.1%. Moreover, the viability, T/C was 2.45% (second compound 3.16 µM, first compound 0.000999 µM); 2.11% (second compound 3.16 µM, first compound 0.00316 µM); 1.92% (second compound 3.16 µM, first compound 0.00999 µM); 1.34% (second compound 3.16 µM, first compound 0.0316 µM); 1.64% (second compound 3.16 µM, first compound 0.0999 µM); 2.41% (second compound 3.16 µM, first compound 0.316 µM). Further, the viability, T/C (second compound 10 µM, first compound 0.000999 µM) is 0.29%; the viability, T/C (second compound 10 µM, first compound 0.00316 µM) is 0.56%; the viability, T/C (second compound 10 µM, first compound 0.00999 µM) was 0.56%; the viability, T/C (second compound 10 µM, first compound 0.0316 µM) is 0.4%; the viability, T/C (second compound 10 µM, first compound 0.0999 µM) is 0.71%; the viability, T/C (second compound 10 µM, first compound 0.316 µM) was 1.05%.
